This note sets out measurements from publication PMC5458211, “Mitochondrial VDAC1-based peptides: Attacking oncogenic properties in glioblastoma” (Oncotarget, 2017).

For this assay, the system named is Ki-67. Kind of assay: Ki-67 immunohistochemistry of xenograft tumors. The class given is in vivo, human U-87MG in nude mice. Particulars: s.c. U-87MG tumors, 20 μM intra-tumoral, n=5. The procedure: Figure 3 VDAC1-based peptides inhibit tumor growth, cell proliferation, and invasion in a glioblastoma xenograft mice model A. Graphical representation of the xenograft experiment protocol used. U-87MG cells (3×10^6/mouse) were inoculated into male nude mice as described in Materials and Methods available online in Supplemental information. B, C. […] The calculated average tumor volumes are presented as means ± SE (n=5) (* p≤0.05, ** p≤0.01). C. The volume of peptide-treated tumors is presented as % of control for each indicated time. Results = mean ± SE (n=5) (* p≤0.05, ** […]). […] E. Quantitative analysis of Ki-67 positive cells. Results = mean ± SE (n=5) (*** p<0.001). […]
100% DMSO and then diluted 20-fold with sterile DDW into three groups (6 animals/group) and treated every to reach a concentration of 25 mg/ml in a final DMSO third day with DMSO (1.44%), Retro-Tf-D-LP4 (10 concentration of 5%. PLGA (50 mg) was dissolved in mg/kg) or Retro-Tf-D-LP4 (10 mg/kg) encapsulated by acetone (1 ml). […] Tumor volume was analyzed using VivoQuant 2.10 10 ml of aqueous solution containing 1% PVA (w/v). […]
(Calbiochem, UK). […] Band intensities were analyzed xenografts were injected 20 µl per tumor (2 points) every by densitometry using Multi Gauge software (Fujifilm) […]
(Xenograft models place foreign cells or tissue in a host animal.)

Non-standard residues stand in square brackets, D forms with d. Residues, ends and D or L forms follow the SMILES beside them.

As for `CC[C@@H](C)[C@@H](NC(=O)[C@@H](CCCCN)NC(=O)[C@H](NC(=O)[C@@H](CCC(N)=O)NC(=O)[C@@H](CCCNC(=N)N)NC(=O)[C@@H](CC(C)C)NC(=O)CNC(=O)[C@@H](Cc1ccccc1)NC(=O)CNC(=O)[C@@H](Cc1ccc(O)cc1)NC(=O)CNC(=O)[C@@H](CCCCN)NC(=O)[C@H](NC(=O)[C@@H](Cc1ccccc1)NC(=O)[C@H](NC(=O)[C@@H](CC(=O)O)NC(=O)[C@H](N)CCCNC(=N)N)C(C)C)[C@H](C)O)[C@H](C)CC)C(=O)N[C@H](Cc1c[nH]c2ccccc12)C(=O)N[C@H](Cc1ccccc1)C(=O)N[C@H](CCC(N)=O)C(=O)N[C@H](CC(N)=O)C(=O)N[C@H](CCCNC(=N)N)C(=O)N[C@H](CCCNC(=N)N)C(=O)N[C@H](CCSC)C(=O)N[C@H](CCCCN)C(=O)N[C@H](Cc1c[nH]c2ccccc12)C(=O)N[C@H](CCCCN)C(=O)N[C@H](CCCCN)C(=O)O` [D-ΔN-Ter-Antp] (H-[dR][dD][dV][dF][dT][dK]G[dY]G[dF]G[dL][dR][dQ][dI][dK][dI][dW][dF][dQ][dN][dR][dR][dM][dK][dW][dK][dK]-OH; N-terminus and C-terminus assumed), the “decrease in Ki-67-positive cell numbers” value is listed as “about 45%”.
On to `CC[C@H](C)[C@H](NC(=O)[C@H](C)NC(=O)[C@@H](N)Cc1c[nH]cn1)C(=O)N[C@@H](Cc1ccc(O)cc1)C(=O)N1CCC[C@H]1C(=O)N[C@@H](CCCNC(=N)N)C(=O)N[C@@H](Cc1c[nH]cn1)C(=O)N[C@@H](CO)C(=O)N[C@@H](Cc1c[nH]c2ccccc12)C(=O)N[C@H](C(=O)N[C@@H](Cc1c[nH]c2ccccc12)C(=O)N[C@@H](CCC(=O)O)C(=O)N[C@H](CCCCN)C(=O)N[C@H](CCCCN)C(=O)N[C@H](CC(C)C)C(=O)N[C@H](CCC(=O)O)C(=O)N[C@@H](C(=O)N[C@H](C)C(=O)N[C@@H](C(=O)N[C@H](CC(N)=O)C(=O)N[C@H](CC(C)C)C(=O)N[C@H](C)C(=O)N[C@H](Cc1c[nH]c2ccccc12)C(=O)N[C@@H](C(=O)N[C@H](C)C(=O)NCC(=O)N[C@H](CC(N)=O)C(=O)N[C@H](CO)C(=O)N[C@H](CC(N)=O)C(=O)N[C@@H](CCCCN)C(=O)N[C@@H](Cc1c[nH]c2ccccc12)C(=O)N[C@H](C(=O)N[C@@H](Cc1c[nH]c2ccccc12)C(=O)N[C@@H](CCCCN)C(=O)O)[C@@H](C)O)[C@H](C)O)C(C)C)[C@H](C)O)[C@@H](C)O` [Tf-D-LP4], for which the “decrease in Ki-67-positive cell numbers” value is on record as “about 45%”.
